This passage reports inhibition in vivo, anti-allergic activity and antiallergic activity results from patent publication US4059704A, “Tetrazole coumarin derivatives” (Beecham Group Limited, priority 1973, dated 1977).

Experiment [1] relates to Rat PCA response. In words: Rat Passive Cutaneous Anaphylaxis (PCA) test. The format is in vivo, Wistar rats. The method, then:
All of the coumarins prepared in the preceeding Examples were submitted for biological testing. The test system was the Rat Passive Cutaneous Anaphylaxis (PCA) test described below in (ii)
i. Serum containing heat labile homocytotropic antibody was raised in rats by a method similar to that used by Mota. (I. Mota Immunology 1964, 7,681).
Male Wistar rats of 250-300 g, were injected intraperitoneally with 0.5 of Bordatella pertussis vaccine (containing 4 × 10^10 dead organism per ml.) and subcutaneously with 0.5 ml of an emulsion of adjuvant. Rats were bled by cardiac puncture on day 18, the blood was pooled and separated and serum stored at -20° and thawed only once before use.
ii. The P.C.A. test was similar to that described by Ovary and Bier (A. Ovary and O. E. Bier, Proc.Soc.Exp. Biol.Med. 1952, 81, 584) and Goose and Blair (J. Goose and AMJ. N. Blair, Immunology 1969, 16, 769).
0.1 ml of each of six twofold serial dilutions of the serum in 0.9% saline were injected intradermally into separate sites on the shaved dorsal surface of 250-350 g. Wistar rats. 72 hours later the animals were challenged by i.v. injection of 0.3 ml of 1% ovalbumin mixed with 0.1 ml of a 5% solution of pontamine sky blue dye in isotonic saline buffered with pH. 7.2 Sorenson buffer (P.B.S.). The rats were killed after 20 minutes and the diameter of the blue wheals at the antibody injection sites were measured. The starting dilution of the serum was adjusted so that there was no response, after challenge, at the site of injection of the highest dilution and a maximum response at the lowest dilution. Typically, six twofold serial dilutions of the serum from 1/4 to 1/128 were used.
Compounds were tested for their ability to reduce the diameter of the wheals at the injection sites of dilutions of antibody which on all the controls have less than maximum response. Amounts of the compounds were administered to rats each amount to a test group of six animals at a specified time prior to intravenous challenge with ovalbumin. The diameters of the blue wheals which developed on the tests group of animals were compared with those on a control group of six animals treated in the same way as the test group, but which had not received the compound under test.
% Inhibition of P.C.A. = 100 (1 - a/b)
a = The mean of the sum of the diameters of the wheals produced in the test group of animals at those antibody sites where all the control group of animals gave less than maximum response.
b = The mean of the sum of diameters of the wheals produced in the control group of animals at those antibody sites where all the animals gave less than maximum response.
The preferred method of administration was a solution of the test compound dissolved in pH 7.2 buffer and neutralised with sodium bicarbonate.

For experiment [2] the following is noted: authors' conclusion in J.Chem.Soc. Perkin Trans I, 779, 1972; cited from earlier work.
Experiment [3] can be described thus: anti-allergic activity (general statement, no test detailed). Conditions: in our hands.
Where [4] appears, read: 1 h, time 60 mins prior to challenge.
[5] abbreviates: 0.5 h, time 30 mins prior to challenge.
The mark [6] stands for this setting: 10 min, time 10 mins prior to challenge.

The inhibition in vivo is the relative decrease from the control value, in per cent. For `Cc1c(-c2nnn[nH]2)c(=O)oc2ccc(Cl)cc12` [Example 3, 6-Chloro-4-methyl-3-(tetrazol-5-yl) coumarin], in experiment [1] (setting [4]), the inhibition in vivo at 25 mg/kg was found to be 28% and the inhibition in vivo at 100 mg/kg was determined as 35%.
As to `Cc1c(-c2nnn[nH]2)c(=O)oc2c1ccc1ccccc12` [Example 8, 7,8-Benzo-4-methyl-3-(tetrazol-5-yl) coumarin], in experiment [1] (setting [4]), the inhibition in vivo at 25 mg/kg amounted to 20% and the inhibition in vivo at 100 mg/kg was 30%.
Regarding `Cc1c(-c2nnn[nH]2)c(=O)oc2ccccc12` [Example 1, 4-Methyl-3-(tetrazol-5-yl) coumarin, reference compound], in experiment [2], the anti-allergic activity result was “no anti-allergic activity”. Also, in experiment [1] (setting [4]), the inhibition in vivo at 25 mg/kg stood at 38% and the inhibition in vivo at 100 mg/kg stood at 48%. For the same compound, the antiallergic activity result in experiment [3] was “substantial antiallergic activity”.
On to `Cc1c(-c2nnn[nH]2)c(=O)oc2c(Cl)cccc12` [Example 7, 8-Chloro-4-methyl-3-(tetrazol-5-yl) coumarin], for which, in experiment [1] (setting [5]), the inhibition in vivo at 25 mg/kg worked out at 19% and the inhibition in vivo at 100 mg/kg worked out at 26%.
Take `Cc1c(-c2nnn[nH]2)c(=O)oc2ccc(Br)cc12` [Example 2, 6-Bromo-4-methyl-3-(tetrazol-5-yl) coumarin]: in experiment [1] (setting [4]), the inhibition in vivo at 25 mg/kg was 36% and the inhibition in vivo at 100 mg/kg is 44%.
Turning to `CCCc1c(-c2nnn[nH]2)c(=O)oc2ccccc12` [Example 10, 4-n-Propyl-3-(tetrazol-5-yl) coumarin], in experiment [1] (setting [5]), the inhibition in vivo at 25 mg/kg was -12% and the inhibition in vivo at 100 mg/kg was 45%.
On to `Cc1ccc2oc(=O)c(-c3nnn[nH]3)c(C)c2c1` [Example 5, 4,6-Dimethyl-3-(tetrazol-5-yl) coumarin], for which, in experiment [1] (setting [4]), the inhibition in vivo at 25 mg/kg was 32% and the inhibition in vivo at 100 mg/kg was 19%.
Regarding `O=c1oc2ccccc2c(-c2ccccc2)c1-c1nnn[nH]1` [Example 11, 4-Phenyl-3-(tetrazol-5-yl) coumarin], in experiment [1] (setting [5]), the inhibition in vivo at 25 mg/kg is -10% and the inhibition in vivo at 100 mg/kg was determined as 14%.
The like results for `CCc1c(-c2nnn[nH]2)c(=O)oc2ccccc12` [Example 9, 4-Ethyl-3-(tetrazol-5-yl) coumarin] were, in that order, 19% and 70%.
The like results for `Cc1cc2oc(=O)c(-c3nnn[nH]3)c(C)c2cc1C` [Example 4, 3-(Tetrazol-5-yl)-4,6,7-trimethyl coumarin] were, in that order, 47% and 70%.
Take `CCc1cc2oc(=O)c(-c3nnn[nH]3)c(C)c2cc1CC` [Example 12, 6,7-Diethyl-4-methyl-3(tetrazol-5-yl) coumarin]: in experiment [1] (setting [6]), the inhibition in vivo at 25 mg/kg was -6% and the inhibition in vivo at 100 mg/kg was -1%. In experiment [1] (setting [4]), the inhibition in vivo at 25 mg/kg turned out to be 10% and the inhibition in vivo at 100 mg/kg is 42%.
Turning to `Cc1ccc2c(C)c(-c3nnn[nH]3)c(=O)oc2c1` [Example 6, 4,7-Dimethyl-3-(tetrazol-5-yl) coumarin], in experiment [1] (setting [5]), the inhibition in vivo at 25 mg/kg is 42% and the inhibition in vivo at 100 mg/kg stood at 45%.
